Results taken from patent US5780472A, “Piperazine derivatives and methods for the preparation thereof and compositions containing the same” (Samjin Pharmaceuticazl Co., Ltd., priority 1995, dated 1998).
Values after ≈ are worked out from the molar mass of the structure shown. Structures can show the parent of a compound that is named as a salt.

What was measured:
[1] = test system: ICR mice; test: Acute toxicity test (LD50), Litchfield-Wilcoxon method; type: in vivo, mouse; parameters: unit not given here; conditions: male ICR mice, 14 days
[2] = test system: P388 (mouse lymphoid neoplasma cell); test: In vitro antitumor effects against animal leukemia cells (dye exclusion assay), P388; type: cell-based; conditions: 50% cell growth inhibition, 37° C., trypan blue; for ED50: 48 hours, 2880 min; for IC50: Mus musculus, P388, 48 h, read-out: ED50 (the source's name)
Description: P388 (mouse lymphoid neoplasma cell)
(§1) B. Method of Experiment(Dye Exclusion Assay)
(§2) 2) Sample drugs diluted with log dose were added into the cells, and it were cultured at 37° C., for 48 hours, in […] incubater, and then viable cell number was measured, Viable cell number was measured with dye exclusion test using trypan blue.

[3] = test system: L1210 and P388 mouse cancer cells; test: In vitro antitumor activity against L1210 and P388 compared with mitomycin C (dye exclusion assay); type: cell-based; conditions: in words
Description: as §1
1) L-1210 and P388 cells that were cultured in RPMI 1640 media containing 10% FBS were regulated as the cell concentration of 1×10^6 cells/ml.
as §2
3) The concentration of sample compounds of 50% cell growth inhibition compared with standard group was determined as IC50.

[4] = test system: L1210 (mouse leukemia cell); test: In vitro antitumor effects against animal leukemia cells (dye exclusion assay), L1210; type: cell-based; conditions: 50% cell growth inhibition, 37° C., trypan blue; for ED50: 48 hours, hydrochloride, 2880 min; for IC50: Mus musculus, L1210, 48 h, read-out: ED50 (the source's name)
Description: L1210(mouse leukemia cell)
as §1, §2

[5] = test system: mouse leukemia P388 cells; test: In vivo antitumor effects against mouse leukemia P388 cells; conditions: for T/C (%) etc.: days 1, 5, 9, median survival time; for antitumor effect in P388 mice: in words
Description: 1) Leukemia P388 cells being transfer-cultured succesively in DBA/2 mouse, were grafted i.p. into each mouse of a group comprising 8 mice of 6 week old BDFI mouse as the dose of 1×10^6 cells/0.1 ml.
2) Sample drugs were dissolved in PBS or suspended in 0.5% Tween 80, and then injected into abdominal cavity of mouse at each prescribed concentration on days 1, 5, 9, respectively.
3) With observation every day, survival times of tested mice were measured. Antitumor activities was determined in such a manner that the increasing ratio(T/C %) of average survival days of drug-treated groups compared with the control group was calculated using the mean survival times of each tested groups.
* Experimental Conditions for Mouse P388
(§3) Animal: BDFI mouse (8 mice/group)
Inoculum size: 10^6 cells/mouse
(§4) Treatment time: days 1, 5, 9
(§5) Parameter: median survival time

[6] = test system: 5 kinds of human solid cancer cell lines; test: In vitro antitumor activity against 5 human solid cancer cell lines compared with cisplatin (SRB assay); type: cell-based; conditions: in words
Description: Antitumor activities of the compounds of present invention were tested. Antitumor activities of compounds of the present invention were tested in vitro against 5 kinds of human tumor cell lines and 2 kinds of leukemia tumor cell lines. The method of in vitro test is as follows.
B. Method of test(SRB Assay Method)
a. Human solid tumor cell lines, […](non-small lung cell), SKMEL-2(melanoma), HCT-15(colon), SKOV-3(ovarian), XF-498(CNS) were cultured at 37° C., in 5% CO2 incubater using the RPMI 1640 media containing 10% FBS, while they were transfer-cultured successively once or twice per week. Cell cultures were dissolved into the solution of 0.25% trypsin and 3 mM CDTA PBS(-) and then cells were separated from media which the cells were sticked on.
b. 5×10^3 -2×10^4 cells were added into each well of 96-well plate and cultured in 5% CO2 incubater, at 37° C., for 24 hours.
c. Each sample drugs was dissolved in a small quantity of DMSO, and diluted to concentrations prescribed in experiment with media, and then the final concentration of DMSO was controlled below 0.5%.
d. A medium of each well cultured for 24 hours as above b., was removed by aspiration. 200 μl of drug samples prepared in c. was added into each well and the wells were cultured for 48 hours. Tz(time zero) plates were collected at the point of time drugs were added.
e. After Tz plates and plates were treated with cell fixing by TCA of SRB assay method, staining of 0.4% SRB solution, washing with 1% acetic acid, OD values were measured at 520 nm, following elution of dye with 10 mM Tris solution.
e. If T≥Tz, cellular response function was calculated with 100×(T-Tz)/(C-Tz), and if T<Tz, with 100×(T-Tz)/Tz.

[7] = test system: B16 Melanoma; test: In vivo antitumor activities against mouse solid tumor, B16 melanoma; conditions: for T/C (%) Etc.: days 1, 5, 9, median survival time; for antitumor activities in B16 mouse melanoma: in words
Description: BDF1 mouse was used in experiment while being successively transfer cultured in C57BL/6 mice by s.c.
1) After 1 g of tumor was added into cold balanced salt solution up to be 10 ml, it was homogenized (10:1,brei).
2) 0.5 ml Brei of the above 1) were grafted into each BDFI mouse by i.p.
3) Median survival time was measured, and the activity was determined in such a manner that if T/C was over 125%, it presented moderate activity, while if it is over 150%, it had significant activity.
* Experimental Conditions for Mouse B16 Melanoma.
as §3
Inoculum size: 10^5 cells/mouse
as §4, §5

SMILES | LD50 ([1]; i.p.) | ED50 ([2]; hydrochloride) [µg/mL] | antitumor activities compared with mitomycin C [3] | ED50 [4] [µg/mL] | ED50 [2] [µg/mL] | T/C (%) etc. ([5]; 50 mg/kg i.p.) [%] | T/C (%) etc. ([5]; 100 mg/kg i.p.) [%] | antitumor effect in P388 mice [5] | antitumor activities compared with cisplatin [6] | IC50 [4] [µg/mL] | LD50 ([1]; p.o.) | IC50 [2] [µg/mL] | T/C (%) Etc. ([7]; Dose 50 (unit not given) i.p.) [%] | T/C (%) Etc. ([7]; Dose 100 (unit not given) i.p.) [%] | T/C (%) Etc. ([7]; Dose 200 (unit not given) i.p.) [%] | antitumor activities in B16 mouse melanoma [7]
CCc1cc(NC(=O)N2CCN(c3ccccc3OC)CC2)c(OC)nc1C [Example 148, 1-[(5-ethyl-2-methoxy-6-methylpyridin-3-yl)aminocarbonyl]-4-[(2-methoxyphenyl)piperazine-2-yl]piperazine salt of hydrochloride] | 425.3 | 1.3 | same or more excellent antitumor activities | 1.5 |  |  |  |  |  |  |  |  |  |  |  | 
CCc1cc(NC(=O)N2CCN(c3ccccc3OC)CC2)c(OC)nc1C [Example 1, 1-[(5-ethyl-2-methoxy-6-methylpyridin-3-yl)aminocarbonyl]-4-(2-methoxyphenyl)piperazine] |  |  |  |  | 0.6 (≈ 1.56 µM) | 109.1 | 134.6 | significant antitumor effect | superior antitumor activities to those of cisplatin | 1.6 (≈ 4.16 µM) |  |  |  |  |  | 
COc1ccccc1N1CCN(C(=O)Nc2cc(C)c(C)nc2OC)CC1 [Example 108] | > 2,000 |  | same or more excellent antitumor activities |  |  |  |  |  | superior antitumor activities to those of cisplatin | 0.8 (≈ 2.16 µM) | > 3,110 | 0.9 (≈ 2.43 µM) |  |  |  | 
CCc1cc(NC(=O)N2CCN(c3cc(C)cc(C)c3)CC2)c(OC)nc1C [Example 29, 1-[(5-ethyl-2-methoxy-6-methylpyrdin-3-yl)aminocarbonyl]-4-(3,5-dimethylphenyl)piperazine] |  |  | same or more excellent antitumor activities |  |  | 136.4 | 190.9 | significant antitumor effect | superior antitumor activities to those of cisplatin | 0.4 (≈ 1.05 µM) |  | 0.5 (≈ 1.31 µM) |  |  |  | 
CCc1cc(NC(=O)N2CCN(c3cc(OC)cc(OC)c3)CC2)c(OC)nc1C [Example 6, 1-[(5-ethyl-2-methoxy-6-methylpyridin-3-yl)aminocarbonyl]-4-(3,5-dimethoxyphenyl)piperazine] | 248.5 |  | same or more excellent antitumor activities |  |  | 133.3 | 183.3 | significant antitumor effect | superior antitumor activities to those of cisplatin | 0.6 (≈ 1.45 µM) | > 622 | 0.3 (≈ 0.724 µM) | 127.3 | 124.2 | 139.4 | significant antitumor activities
CCc1cc(NC(=O)N2CCN(c3cccc(Cl)c3)CC2)c(OC)nc1C [Example 149, 1-[(5-ethyl-2-methoxy-6-methylpyridin-3-yl)aminocarbonyl]-4-(3-chlorophenyl)piperazine salt of hydrochloride] | 410.5 |  | same or more excellent antitumor activities | 0.9 |  |  |  |  | superior antitumor activities to those of cisplatin |  |  |  |  |  |  | 
CCc1cc(NC(=O)N2CCN(c3cccc(Cl)c3)CC2)c(OC)nc1C [Example 16, 1-[(5-ethyl-2-methoxy-6-methylpyridin-3-yl)aminocarbonyl]-4-(3-chlorophenyl)piperazine] |  |  |  |  |  | 113.6 | 131.8 | significant antitumor effect |  | 1.8 (≈ 4.63 µM) |  | 1.6 (≈ 4.11 µM) | 115.2 | 127.3 | 118.2 | significant antitumor activities
CCc1cc(NC(=O)N2CCN(c3cc(F)cc(F)c3)CC2)c(OC)nc1C [Example 13, 1-[(5-ethyl-2-methoxy-6-methylpyridine-3-yl)aminocarbonyl]-4-(3,5-difluorophenyl)piperazine] |  |  | same or more excellent antitumor activities |  |  |  |  |  | superior antitumor activities to those of cisplatin | 1.7 (≈ 4.35 µM) |  | 1.6 (≈ 4.1 µM) |  |  |  | 
CCc1cc(NC(=O)N2CCN(c3cccc(OC(C)=O)c3)CC2)c(OC)nc1C [Example 41, 1-[(5-ethyl-2-methoxy-6-methylpyridin-3-yl)aminocarbonyl]-4-(3-acetoxyphenyl)piperazine] |  |  | same or more excellent antitumor activities |  |  |  |  |  | superior antitumor activities to those of cisplatin | 1.4 (≈ 3.39 µM) |  | 2 (≈ 4.85 µM) |  |  |  | 
COc1nc(C)c(C)cc1NC(=O)N1CCN(c2cc(C)cc(C)c2)CC1 [Example 120, 1-[(5,6-dimethyl-2-methoxypyridin-3-yl)aminocarbonyl]-4-(3,5-xylyl)piperazine] |  |  | same or more excellent antitumor activities |  |  |  |  |  | superior antitumor activities to those of cisplatin | 0.3 (≈ 0.814 µM) |  | 0.1 (≈ 0.271 µM) |  |  |  | 
COc1cc(OC)cc(N2CCN(C(=O)Nc3cc(C)c(C)nc3OC)CC2)c1 [Example 118, 1-[(5,6-dimethyl-2-methoxypyridin-3-yl)aminocarbonyl]-4-(3,5-dimethoxyphenyl)piperazine] | 182.8 |  | same or more excellent antitumor activities |  |  |  |  |  | superior antitumor activities to those of cisplatin | 0.06 (≈ 0.15 µM) | 571.8 | 0.06 (≈ 0.15 µM) |  |  |  | 
